Values belong to the compound of their own block, whether it stands above or below them.
What was measured:
[1] = Solvency properties: largest normal hydrocarbon alkane soluble at 50 percent by volume
Protocol: A number of potential solvents were tested for their ability to dissolve hydrocarbons of increasing molecular weight according to the procedure described in U.S. Pat. No. 5,275,669 (Van Der Puy et al.), the description of which is incorporated herein by reference. The data shown in Table 1 were obtained by determining the largest normal hydrocarbon alkane which was soluble in a particular solvent at a level of 50 percent by volume. The numbers in the Table correspond with the carbon number of the largest alkane, e.g., “8” refers to octane. Measurements were made from room temperature up to the boiling point of the solvent. For comparative purposes, hydrofluorocarbons (HFCs) and perfluorocarbons (PFCs) were also tested using this method.
Using essentially the above-described method, the solvency properties of other alkoxy-substituted perfluorocompounds were tested at room temperature.

[2] = Open cup flash point ASTM D1310-86; format: physicochemical
Protocol: (§1) Various properties were measured for C4F9OCH3, CHClFCF2OCH3, and blends of each ether compound with cosolvent, trans-1,2-dichloroethylene (hereinafter, t-DCE) or n-butyl bromide, at various weight ratios.

[3] = Stability in the presence of acid (96% sulfuric acid, GLC); format: physicochemical; conditions: neat ether; sulfuric acid as in Stability in the Presence of Acid section
Protocol: To assess hydrolytic stability under acidic conditions, C4F9OCH3 (15 g, 0.06 mole) was combined with sulfuric acid (10 g of 96% by weight, 0.097 mole) in a 50 mL flask containing a stir bar and fitted with a reflux condenser. The resulting mixture was stirred for 16 hours at room temperature, and then the resulting upper fluorochemical phase was separated from the resulting lower sulfuric acid phase. […] Chem. 49, 4007 (1984), which states that “[f]luorine atoms attached to carbon which also bears an alkyl ether group are known to be labile to electrophilic reagents. They are readily hydrolyzed in concentrated sulfuric acid, thus providing a route to some esters of fluoroacids.”

[4] = Closed cup flash point ASTM D3278-96; format: physicochemical
Protocol: as §1

[5] = Mineral oil removal from aluminum coupon, sonication in solvent; conditions: sonicated 1 minute
Protocol: In the following Examples and Comparative Examples, the cleaning ability of the alkoxy-substituted perfluorocompounds used in the cleaning process of the invention was further evaluated. A 1.28 cm×1.28 cm×0.225 cm wire-wrapped, aluminum coupon was coated with white heavy mineral oil (available from Aldrich Chemical) by immersing the coupon in an oil-filled beaker. The initial amount of the oil on the coupon was determined by weighing it on an analytical balance to the nearest 0.1 mg. The coupon was immersed in a container of solvent and sonicated for 1 minute at the indicated temperature (see Table 3 below for the solvents and temperatures used). The coupon was then weighed again, and the results were recorded in Table 3 as percent oil removal.

[6] = Ability to dissolve halogenated oils (miscibility); format: physicochemical; conditions: room temperature
Protocol: The ability of alkoxy-substituted perfluorocompounds to dissolve several halogenated oils was determined by adding a measured amount of oil to alkoxy-substituted perfluorocompound until the resulting mixture became turbid or phase-split. […] The results (shown in Table 12) indicate that alkoxy-substituted perfluorocompounds have very high ability to dissolve halogenated oils. Thus, the perfluorocompounds can be used as carrier solvents for halogenated oils in the deposition of coatings of such oils on substrate surfaces.

[7] = Rinse agent in co-solvent cleaning of solder flux; conditions: solvating agent 1 minute at about 55° C., then 30 seconds in boiling solvent
Protocol: The ability of alkoxy-substituted perfluorocompounds to function as a rinse agent in a co-solvent cleaning process was evaluated. The above-described aluminum coupon was coated with solder flux (available from Alpha Metals as Alpha 611 rosin, mildly activated flux) by immersing the coupon into a flux-filled beaker. The flux-coated coupon was then dried using a forced air convection drier. The initial amount of the flux on the coupon was determined by weighing it on an analytical balance to the nearest 0.1 mg. The coupon was immersed in a container of a mixed solvating agent comprising approximately 50% methyl decanoate and 50% dipropylene glycol di-n-butyl ether and was sonicated for 1 minute at approximately 55° C. The coupon was then immersed for 30 seconds into alkoxy-substituted perfluorocompound which had been heated to its boiling point. The coupon was weighed again, and the results were recorded in Table 5 below as percent oil removed from the coupon.

[8] = Stability in the presence of base: aqueous NaOAc, fluoride ion measurement; format: physicochemical; conditions: 10 g with 10 g 0.1M NaOAc, 110° C., 16 hours
Protocol: To assess hydrolytic stability, a ten gram sample of alkoxy-substituted perfluorocompound was combined with 10 g of 0.1M NaOAc and sealed in a 2.54 cm (internal diameter) by 9.84 cm Monel™ 400 alloy (66% nickel, 31.5% copper, and 1.2% iron and several minor components) tube (available from Paar Instrument Co. of Moline, Ill. as Part Number 4713cm). The tube was heated at 110° C. in a forced air convection oven for 16 hours. After cooling to room temperature, a 1 mL sample of the tube contents was diluted with 1 mL of total ionic strength adjustment buffer (TISAB, available from Orion Research, Inc., a mixture of 1,2-cyclohexylene dinitrilotetraacetic acid, deionized water, sodium acetate, sodium chloride, and acetic acid). The concentration of fluoride ion (resulting from any reaction of the perfluorocompound with the aqueous NaOAc) was measured using an Orion Model 720A Coulombmeter with a F-specific electrode which had been previously calibrated using 0.5 and 500 ppm F^− solutions. Based on the measured fluoride ion concentration, the rate at which HF had been generated by reaction of the aqueous NaOAc with the perfluorocompound was calculated.

[9] = Fluorinated oil removal from aluminum coupon; conditions: Krytox 157FSM, room temperature
Protocol: Using essentially the same procedure as that described in Examples 8-10, the ability of the alkoxy-substituted perfluorocompounds to remove a fluorinated oil was evaluated. As in the previous Examples, a coupon was immersed in Krytox™ 157FSM perfluoropolyether oil having carboxylic acid end groups (available from DuPont), and the percent oil remaining after immersion in the solvent (at room temperature) was determined.

[10] = Flash point testing ASTM D3278-89; format: physicochemical
Protocol: The alkoxy-substituted perfluorocompounds C4F9OCH3, C4F9OC2H5, and c-C6F11OCH3 were tested for flash point by the standard method defined by ASTM D3278-89.

[11] = Pump oil removal in vapor of boiling n-C6H14/perfluorocompound mixture; conditions: vapor of boiling 40 volume % n-C6H14, 60 volume % fluorinated component; 60 seconds
Protocol: (§2) The above-described test coupon was dipped into DuoSeal Pump Oil (available from Sargent-Welch) and was then immersed in the vapor of a boiling mixture of 40 volume % n-C6H14 and 60 volume % alkoxy-substituted perfluorocompound (a cleaning composition of the invention), for 60 seconds. The percent oil removal was determined in the above-described manner.

[12] = Paraffinic oil removal: solvating agent, then rinse in boiling solvent; conditions: methyl caproate/dipropylene glycol di-n-butyl ether 30 seconds, boiling rinse 30 seconds
Protocol: The above-described test coupon was dipped into a paraffinic oil comprising a mixture of linear and branched hydrocarbons (DuoSeal Pump Oil, available from Sargent Welch), was immersed in mixed solvating agent comprising approximately 50% methyl caproate and 50% dipropylene glycol di-n-butyl ether for 30 seconds, and was then rinsed in boiling alkoxy-substituted perfluorocompound for 30 seconds. The percent oil removal was determined in the above-described manner.

[13] = Pump oil removal with n-C6H14/perfluorocompound mixture at room temperature, ultrasonic; conditions: 40 volume % n-C6H14, 60 volume % fluorinated component, 60 seconds
Protocol: as §2, with “in” for “in the vapor of”, “a” for “a boiling”, “invention)” for “invention),”, “seconds at room temperature with ultrasonic agitation.” for “seconds.”

[14] = Perfluoropolyether oil removal in solvent vapor; conditions: Brayco 815Z; vapor over boiling liquid, 60 seconds
Protocol: The above-described aluminum coupon was dipped into Brayco 815Z perfluoropolyether oil (available from Castrol Inc., molecular weight of about 10,000) and then immersed in alkoxy-substituted perfluorocompound vapor (over the boiling liquid) for 60 seconds. The percent oil removal was determined in the above-described manner.

[15] = Pump oil removal with boiling mixed terpenes/perfluorocompound mixture; conditions: boiling mixture 40 volume % mixed terpenes, 60 volume % fluorinated component
Protocol: The above-described test coupon was dipped into DuoSeal Pump Oil (available from Sargent-Welch), was immersed in a boiling mixture of 40 volume % of a solvating agent comprising mixed terpenes having a boiling range of 243-274° C. and 60 volume % of alkoxy-substituted perfluorocompound (a cleaning composition of the invention), was cooled for 60 seconds, and was then immersed in mixture vapor for 30 seconds. The percent oil removal was determined in the above-described manner.

[16] = Mineral oil removal with boiling methyl decanoate/perfluorocompound mixture; conditions: boiling mixture 40 volume % methyl decanoate, 60 volume % perfluorocompound
Protocol: The above-described test coupon was dipped in white heavy mineral oil (available from Aldrich Chemical), was immersed in a boiling single-phase mixture of 40 volume % of a solvating agent comprising essentially methyl decanoate and 60 volume % of alkoxy-substituted perfluorocompound (a cleaning composition of the invention) for 60 seconds, was cooled for 60 seconds, and was then immersed in mixture vapor for 30 seconds. The percent oil removal was determined in the above-described manner.

[17] = 20 weight % ether, 80 % n-butyl bromide
[18] = 30 weight % ether, 70 % n-butyl bromide
[19] = 50 weight % ether, 50 % n-butyl bromide
[20] = 80 weight % ether, 20 % n-butyl bromide
[21] = Brayco 815Z Perfluoropolyether (MW about 10,000)
[22] = Chlorotrifluoroethylene Fluid (Inland 41 Vacuum Pump Oil)
[23] = Fomblin AM-2001 Functionalized Perfluoropolyether

Largest Carbon Number of Longest Hydrocarbon Alkane to Dissolve [1, 17]: 21
Largest Carbon Number of Longest Hydrocarbon Alkane to Dissolve ([1]; 20 weight % ether, 80 % t-DCE): 27
Largest Carbon Number of Longest Hydrocarbon Alkane to Dissolve [1, 18]: 21
Largest Carbon Number of Longest Hydrocarbon Alkane to Dissolve [1, 19]: 20
Largest Carbon Number of Longest Hydrocarbon Alkane to Dissolve ([1]; 50 weight % ether, 50 % t-DCE): 21
Largest Carbon Number of Longest Hydrocarbon Alkane to Dissolve [1, 20]: 19
Largest Carbon Number of Longest Hydrocarbon Alkane to Dissolve ([1]; 80 weight % ether, 20 % t-DCE): 19
Largest Carbon Number of Longest Hydrocarbon Alkane to Dissolve ([1]; 100 weight % ether, 0 % n-butyl bromide): 18
Largest Carbon Number of Longest Hydrocarbon Alkane to Dissolve ([1]; 100 weight % ether, 0 % t-DCE): 18
Open Cup Flash Point (ASTM D1310-86) ([2]; 20 weight % ether, 80 % t-DCE): 80 (27) ° F. (° C.)
Open Cup Flash Point (ASTM D1310-86) ([2]; 50 weight % ether, 50 % t-DCE): 80 (27) ° F. (° C.)
Open Cup Flash Point (ASTM D1310-86) ([2]; 80 weight % ether, 20 % t-DCE): 85 (29) ° F. (° C.)
Open Cup Flash Point (ASTM D1310-86) ([2]; 100 weight % ether, 0 % t-DCE): 76 (24) ° F. (° C.)
Stability in Presence of Acid: conversion to ester [3]: 100%
Closed Cup Flash Point (ASTM D3278-96) [4, 17]: 50 (7) ° F. (° C.)
Closed Cup Flash Point (ASTM D3278-96) [4, 18]: 45 (10) ° F. (° C.)
Closed Cup Flash Point (ASTM D3278-96) [4, 19]: 45 (7) ° F. (° C.)
Closed Cup Flash Point (ASTM D3278-96) [4, 20]: 50 (10) ° F. (° C.)
Closed Cup Flash Point (ASTM D3278-96) ([4]; 100 weight % ether, 0 % n-butyl bromide, raised to 140° F. (60° C.)): 45 (7) ° F. (° C.)
Compound: COC(F)(F)C(F)Cl (centres unmarked) [CHClFCF2OCH3, 2-chloro-1,1,2-trifluoroethyl methyl ether, reference compound]

Compound: COC1(F)C(F)(F)C(F)(F)C(F)(F)C(F)(F)C1(F)F [c-C6F11OCH3]
percent oil removal ([5]; 23 ° C.): 74.4%
percent oil removal ([5]; 50 ° C.): 96.5%
percent oil removal ([5]; 60 ° C.): 99.8%
Miscibility with solute [6, 21]: Miscible (greater than or equal to 50 percent by volume solubility at room temperature)
Miscibility with solute [6, 22]: Miscible (greater than or equal to 50 percent by volume solubility at room temperature)
Miscibility with solute [6, 23]: Miscible (greater than or equal to 50 percent by volume solubility at room temperature)
% Removed [7]: 100.0%
HF Generation Rate [8]: 0.33 µg/g/h
% Removed [9]: 96.5%
Flash point [10]: no flash point

Compound: FC(F)C(F)(F)C(F)(F)C(F)(F)C(F)(F)C(F)(F)F [Example C6F13H, C6F13H, reference compound]
percent oil removal ([5]; 23 ° C.): 71.7%
percent oil removal ([5]; 50 ° C.): 86.8%
% Removed [7]: 91.2%

Compound: FC(F)(F)C(F)(F)C(F)(F)C(F)(F)C(F)(F)C(F)(F)F [Example C6F14, C6F14, reference compound]
percent oil removal ([5]; 23 ° C.): 54.9%
percent oil removal ([5]; 50 ° C.): 67.6%
Percent Soil Removed [11]: 73.8%
Percent Soil Removed [12]: 89.2%
% Removed [7]: 51.9%
Percent Soil Removed [13]: 88.5%
Percent Soil Removed [14]: 92.9%
Percent Soil Removed [15]: 75.7%

Compound: C4F9OC2H5 [Example C4F9OC2H5]
percent oil removal ([5]; 23 ° C.): 56.0%
percent oil removal ([5]; 50 ° C.): 99.2%
percent oil removal ([5]; 60 ° C.): 100.0%
Miscibility with solute [6, 21]: Miscible (greater than or equal to 50 percent by volume solubility at room temperature)
Miscibility with solute [6, 22]: Miscible (greater than or equal to 50 percent by volume solubility at room temperature)
Miscibility with solute [6, 23]: Miscible (greater than or equal to 50 percent by volume solubility at room temperature)
Percent Soil Removed [11]: 97.1%
Percent Soil Removed [12]: 100.0%
% Removed [7]: 100.0%
HF Generation Rate [8]: 0.22 µg/g/h
Percent Soil Removed [13]: 99.0%
Percent Soil Removed [16]: 94.28%
Percent Soil Removed [14]: 93.3%
% Removed [9]: 99.3%
Flash point [10]: no flash point
Percent Soil Removed [15]: 99.4%

Compound: FC(F)(Cl)C(F)(Cl)Cl [CF2ClCFCl2, reference compound]
percent oil removal ([5]; 23 ° C.): 98.9%
percent oil removal ([5]; 50 ° C.): 98.7%

Compound: FC(C(F)C(F)(F)C(F)(F)F)C(F)(F)F (centres unmarked) [reference compound]
HF Generation Rate [8]: 42.9 µg/g/h
